# Laboratory results taken from patent publication US9023821B2, “Use of MicroRNA for treating diseases associated with a dysfunction of the cilia in multiciliated epithelial cells” (Centre National de la Recherche Scientifique, priority 2009, dated 2015).
# {Chol} = cholesterol
# Tests used:
# HAEC cells [1] = experiment: Ciliogenesis of HAEC cells under blocking of the Notch signalling pathway; format: cell-based, human; settings: 10 μM
# HAEC cells [2] = experiment: Ciliogenesis of HAEC cells treated with antagomir during regeneration (tubulin-β4 positive cells); format: cell-based, human; settings: number of ciliated HAEC cells at stage ALI-D21, n=6, P<0.001
# Procedure: (a,b) the HEAC cells are treated several times with anti-miR-449 antagomirs or a control antagomir (20 nM) during their regeneration (generally 21 days). The percentage of ciliated cells was defined as the ratio of the number of cells positive to +tubulin-β4 relative to the number of nuclei (20 fields/filter and 3 filters/donor). […] The histogram indicates the percentage of ciliated cells per field for each experimental condition (n=6, ***, P<0.001, Student test).
# Six independent cultures of HAEC cells were transfected with an oligonucleotide directed against the miR-449s and conjugated with a cholesterol molecule; ciliogenesis was evaluated during the regeneration time.
# These tests use an antisense oligonucleotide of miR-449a (antagomir) bound at 3′ by a 2′-O-methyl bond to a molecule of cholesterol and with the sequence: 5′-ascscsagcuaacaauacacugcscsa-Chol-3′ (SEQ. ID. No. 207) (the phosphorothioate bonds are indicated by the subscript J (obtained according to Eurogentec (Seraing, Belgium).
# The antagomir (100 μM) was preincubated in fetal calf serum (FCS) for 30 min RT. Then the antagomir-FCS mixture in a differentiation medium (20 μM of antagomir) is added on the apical face of the primary HAEC cells. After 2 h at 37° C., the mixture is withdrawn to restore the air-liquid interface. […]
# miR-449 = experiment: Expression of miRNAs in HAEC cells treated with antagomir; format: cell-based, human
# [3] = system: human airway epithelial cells (HAECs); experiment: High-throughput sequencing (HTS) of miRNAs at four stages of differentiation of HAECs; settings: for Modulation (ratio of the level of intensity of expression in log2 in two stages of differentiation) measured by high-throughput sequencing, D7 − D0 / Modulation (ratio of the level of intensity of expression in log2 in two stages of differentiation) measured by high-throughput sequencing, FC − D7 / Modulation (ratio of the level of intensity of expression in log2 in two stages of differentiation) measured by high-throughput sequencing, WD − D0 / Modulation (ratio of the level of intensity of expression in log2 in two stages of differentiation) measured by high-throughput sequencing, WD − FC / Level of intensity of expression in log2 measured by high-throughput sequencing, D0 / Level of intensity of expression in log2 measured by high-throughput sequencing, D7 / Level of intensity of expression in log2 measured by high-throughput sequencing, FC / Level of intensity of expression in log2 measured by high-throughput sequencing, WD: Table VI; for Level of intensity of expression in log2 At the differentiated stage (WD) measured in HTS: healthy human airway epithelial tissue; for Level of intensity of expression in log2 measured by high-throughput sequencing, D0: stage D0; for Level of intensity of expression in log2 measured by high-throughput sequencing, D7: stage D7; for Level of intensity of expression in log2 measured by high-throughput sequencing, FC: stage FC; for Level of intensity of expression in log2 At the differentiated stage (WD) measured in HTS / Level of intensity of expression in log2 measured by high-throughput sequencing, WD: stage WD
# In short: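 ALI cultures sampled at day 0, day 7, first-cilia stage (~14 d) and full differentiation (~21 d). Trizol lysis, column purification retaining small RNAs. Adaptor ligation, RT at 42° C for 30 min, PCR, gel selection of ~105-150 base products.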
# [4] = system: human airway epithelial cells (HAECs); experiment: Agilent miRNA chips, miRNA expression at four stages of differentiation of HAECs; settings: for Modulation (ratio of the level of intensity of expression in log2 in two stages of differentiation) measured with the Agilent chips, D7 − D0 / Modulation (ratio of the level of intensity of expression in log2 in two stages of differentiation) measured with the Agilent chips, FC − D7 / Modulation (ratio of the level of intensity of expression in log2 in two stages of differentiation) measured with the Agilent chips, WD − D0 / Modulation (ratio of the level of intensity of expression in log2 in two stages of differentiation) measured with the Agilent chips, WD − FC / Level of intensity of expression in log2 measured with the Agilent chips, D0 / Level of intensity of expression in log2 measured with the Agilent chips, D7 / Level of intensity of expression in log2 measured with the Agilent chips, FC / Level of intensity of expression in log2 measured with the Agilent chips, WD: Table VI; for Level of intensity of expression in log2 measured with the Agilent chips, D0: stage D0; for Level of intensity of expression in log2 measured with the Agilent chips, D7: stage D7; for Level of intensity of expression in log2 measured with the Agilent chips, FC: stage FC; for Level of intensity of expression in log2 measured with the Agilent chips, WD: stage WD
# In short: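 Patient RNA samples, the same ones analysed by high-throughput sequencing, were first labelled, then hybridized onto arrays carrying 866 human and 89 human viral miRNAs (miRBase v.12.0), following the supplied labelling and hybridization protocol.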
# [5] = system: basal cells and pyramidal cells of the airway epithelium; experiment: miRNA expression in sorted basal cells versus pyramidal cells (ciliated + secretory), HTS and Agilent chips; design: species or system human; settings: for Modulation of expression of the miRNAs in pyramidal cells (323(−)) relative to basal cells 323(+): HTS and Agilent chips; for Intensity of the level of expression in log2 in pyramidal cells (323(−)): pyramidal cells (ciliated + secretory)
# In short: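 FACS on CD151 and tissue factor: double-positive = basal, double-negative = ciliated + mucus cells; DAPI, doublets, aggregates excluded; sort at 5000 events/s. Purity checked by cytometry/immunocytochemistry. miRNA by Agilent array or HTS on total RNA. Source: nasal polyps/conchae, 3 donors.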
Molecule,"Modulation (ratio of the level of intensity of expression in log2 in two stages of differentiation) measured by high-throughput sequencing, D7 − D0 [3]","Modulation (ratio of the level of intensity of expression in log2 in two stages of differentiation) measured by high-throughput sequencing, FC − D7 [3]","Modulation (ratio of the level of intensity of expression in log2 in two stages of differentiation) measured by high-throughput sequencing, WD − D0 [3]","Modulation (ratio of the level of intensity of expression in log2 in two stages of differentiation) measured by high-throughput sequencing, WD − FC [3]",Level of intensity of expression in log2 At the differentiated stage (WD) measured in HTS [3],"Level of intensity of expression in log2 measured by high-throughput sequencing, D0 [3]","Level of intensity of expression in log2 measured by high-throughput sequencing, D7 [3]","Level of intensity of expression in log2 measured by high-throughput sequencing, FC [3]","Level of intensity of expression in log2 measured by high-throughput sequencing, WD [3]","Modulation (ratio of the level of intensity of expression in log2 in two stages of differentiation) measured with the Agilent chips, D7 − D0 [4]","Modulation (ratio of the level of intensity of expression in log2 in two stages of differentiation) measured with the Agilent chips, FC − D7 ([4]; FC − D7)","Modulation (ratio of the level of intensity of expression in log2 in two stages of differentiation) measured with the Agilent chips, WD − D0 [4]","Modulation (ratio of the level of intensity of expression in log2 in two stages of differentiation) measured with the Agilent chips, WD − FC ([4]; WD − FC)","Level of intensity of expression in log2 measured with the Agilent chips, D0 [4]","Level of intensity of expression in log2 measured with the Agilent chips, D7 [4]","Level of intensity of expression in log2 measured with the Agilent chips, FC [4]","Level of intensity of expression in log2 measured with the Agilent chips, WD [4]",Modulation of expression of the miRNAs in pyramidal cells (323(−)) relative to basal cells 323(+) [5],Intensity of the level of expression in log2 in basal cells (323(+)) [5],Intensity of the level of expression in log2 in pyramidal cells (323(−)) [5],also measured
C[C@H](NC(=O)Cc1cc(F)cc(F)c1)C(=O)N[C@H](C(=O)OC(C)(C)C)c1ccccc1 [DCT],,,,,,,,,,,,,,,,,,,,,ciliogenesis during regeneration of the HAEC cells (HAEC cells [1]): potentiates ciliogenesis significantly
"anti-miR-449 antagomir: antisense oligonucleotide of miR-449a bound at 3′ to cholesterol, 5′-ascscsagcuaacaauacacugcscsa-Chol-3′ (SEQ. ID. No. 207) (antisense ACCAGCUAACAAUACACUGCCA; linkages s3 o16 s2 (s phosphorothioate, o phosphodiester), 3' {Chol}, sugars by position and methylation of C not given here; further chemistry not fully specified; listed as Homo sapiens)",,,,,,,,,,,,,,,,,,,,,mean value of inhibition of ciliogenesis (HAEC cells [2]): 2.3±0.3; expression of miR449a (miR-449; n=6): suppresses; expression of miR-21 (miR-449; n=6): no effect; expression of miR-449b (miR-449; n=6): suppresses; expression of miR-449 (miR-449; stage ALI-D21): reduction of the same order
"hsa-miR-574-3p: human miRNA, SEQ ID No. 48 (CACGCUCAUGCACACACCCACA; expressed or natural sequence; listed as Homo sapiens)",0.48 log2,0.12 log2,0.92 log2,0.32 log2,13.42 log2,13.64 log2,14.12 log2,14.24 log2,14.56 log2,1.69 log2,−0.46 log2,1.04 log2,−0.18 log2,4.73 log2,6.42 log2,5.96 log2,5.77 log2,0.91,3.53 log2,4.44 log2,"Modulation (ratio of the level of intensity of expression in log2 in two stages of differentiation), D7 − D0 ([3]; HTS): 0.48 log2; Modulation (ratio of the level of intensity of expression in log2 in two stages of differentiation), FC − D7 ([3]; HTS): 0.12 log2; Modulation (ratio of the level of intensity of expression in log2 in two stages of differentiation), WD − FC ([3]; HTS): 0.32 log2; Abundance (%), D0 ([3]; HTS, ALI-D0): 2.80%; Abundance (%), D7 ([3]; HTS, ALI-D7): 3.92%; Abundance (%), FC ([3]; HTS, ALI-FC): 4.12%; Abundance (%), WD ([3]; HTS, ALI-WD): 3.90%"
"hsa-miR-939: human miRNA, SEQ ID No. 50 (UGGGGAGCUGAGGCUCUGGGGGUG; expressed or natural sequence; listed as Homo sapiens)",0.13 log2,−0.13 log2,0.00 log2,0.00 log2,5.43 log2,0.01 log2,0.15 log2,0.01 log2,0.01 log2,1.40 log2,−0.63 log2,0.70 log2,−0.07 log2,6.64 log2,8.04 log2,7.41 log2,7.34 log2,1.28,4.81 log2,6.08 log2,"Modulation (ratio of the level of intensity of expression in log2 at two stages of differentiation), FC − D7 ([4]; FC − D7, Agilent miRNA chips, Table V): −0.63 log2; Modulation (ratio of the level of intensity of expression in log2 at two stages of differentiation), WD − FC ([4]; WD − FC, Agilent miRNA chips, Table V): −0.07 log2"
